We go through 18 compounds from ChEMBL document CHEMBL3425467, “Synthesis, cytotoxicity and haemolytic activity of Pulsatilla saponin A, D derivatives” (Bioorg Med Chem Lett, 2015).

The nature of data set [1]: Hemolytic activity in rabbit RBC assessed as induction of hemolysis. The format is cell-based, Oryctolagus cuniculus, Erythrocyte. Particulars: red blood cells, read-out: HD50 (the source's name).
Data set [2] has as its system A549. In words: Cytotoxicity against human A549 cells assessed as inhibition of cell growth after 24 hrs by MTT assay. It is filed as functional, cell-based. Particulars: A549, 24 h. (In general: Formazan colour is commonly taken as a measure of viable cells.)
Data set [3] is described as follows: Cytotoxicity against human Bel7402 cells assessed as inhibition of cell growth after 24 hrs by MTT assay. The format is functional, cell-based. Particulars: Bel-7402, 24 h.
Data set [4] deals with SMMC-7721. In words: Cytotoxicity against human SMMC7721 cells assessed as inhibition of cell growth after 24 hrs by MTT assay. The format is functional, cell-based. Particulars: SMMC-7721, 24 h.
Data set [5] in a line: Cytotoxicity against human HL7702 cells assessed as inhibition of cell growth after 24 hrs by MTT assay. The format is cell-based. Particulars: L02, 24 h.
Data set [6] can be described thus: Ratio of hemolytic HD50 for PSA to hemolytic HD50 for compound in rabbit RBC. It is filed as ADME, cell-based, Oryctolagus cuniculus. Particulars: erythrocyte.
Data set [7] relates to Mus musculus. Put plainly: Toxicity in mouse assessed as death time at 0.1 mL/10 g, iv. It is filed as organism-based. Particulars: in vivo.
Data set [8] concerns Mus musculus. In words: Toxicity in mouse assessed as induction of hematuria at 0.1 mL/10 g, iv. It is filed as organism-based. The following applies: in vivo.
Data set [9] relates to Mus musculus. Put plainly: Toxicity in mouse assessed as induction of induction of death at 0.1 mL/10 g, iv. The format is organism-based. Particulars: in vivo.
The nature of data set [10]: Toxicity in iv dosed mouse assessed as tolerance dose. The format is organism-based. Particulars: in vivo.

On to `CC(=O)OCOC(=O)[C@]12CCC(C)(C)C[C@H]1C1=CC[C@@H]3[C@@]4(C)CC[C@H](O[C@@H]5OC[C@H](O)[C@H](O)[C@H]5O[C@@H]5O[C@@H](C)[C@H](O)[C@@H](O)[C@H]5O)[C@@](C)(CO)[C@@H]4CC[C@@]3(C)[C@]1(C)CC2`, for which the HC50 in data set [1] turned out to be 3.6 µM. The IC50 in data set [2] was found to be 21.3 µM; in data set [3], 33.8 µM; in [4], 13.2 µM; in [5], 20.5 µM.

For `C[C@@H]1O[C@@H](O[C@H]2[C@H](O[C@H]3CC[C@@]4(C)[C@@H](CC[C@]5(C)[C@@H]4CC=C4[C@@H]6CC(C)(C)CC[C@]6(C(N)=O)CC[C@]45C)[C@]3(C)CO)OC[C@H](O)[C@@H]2O)[C@H](O)[C@H](O)[C@H]1O`, in data set [1], the HC50 turned out to be 30.2 µM. In addition, the IC50 in [2], in [3], in data set [4] and in [5] was more than 100 µM throughout.

As for `COC(=O)[C@]12CCC(C)(C)C[C@H]1C1=CC[C@@H]3[C@@]4(C)CC[C@H](O[C@@H]5OC[C@H](O)[C@H](O)[C@H]5O[C@@H]5O[C@@H](C)[C@H](O)[C@@H](O)[C@H]5O)[C@@](C)(CO)[C@@H]4CC[C@@]3(C)[C@]1(C)CC2`, the HC50 in [1] amounted to 8.5 µM. Also, the IC50 worked out at 27 µM in data set [2], 72.1 µM in data set [3], 40.8 µM in data set [4] and 36.3 µM in data set [5].

As for `C[C@@H]1O[C@@H](O[C@H]2[C@H](O[C@H]3CC[C@@]4(C)[C@@H](CC[C@]5(C)[C@@H]4CC=C4[C@@H]6CC(C)(C)CC[C@]6(C(=O)N[C@H](CO)C(=O)O)CC[C@]45C)[C@]3(C)CO)OC[C@H](O)[C@@H]2O)[C@H](O)[C@H](O)[C@H]1O`, in [1], the HC50 came out at 8.3 µM. The IC50 in data set [2] turned out to be 32.5 µM; in data set [3], 22.3 µM; in data set [4] it was 26.6 µM; in data set [5] it was 25.6 µM.

For the compound `COC(=O)[C@@H](CO)NC(=O)[C@]12CCC(C)(C)C[C@H]1C1=CC[C@@H]3[C@@]4(C)CC[C@H](O[C@@H]5OC[C@H](O)[C@H](O)[C@H]5O[C@@H]5O[C@@H](C)[C@H](O)[C@@H](O)[C@H]5O)[C@@](C)(CO)[C@@H]4CC[C@@]3(C)[C@]1(C)CC2`, in data set [1], the HC50 amounted to 144 µM. For the same compound, the IC50 is more than 100 µM in [2], more than 100 µM in data set [3], 88.3 µM in data set [4] and more than 100 µM in data set [5]. Further, the Ratio in data set [6] is 20.

With `COC(=O)[C@H]1CCCN1C(=O)[C@]12CCC(C)(C)C[C@H]1C1=CC[C@@H]3[C@@]4(C)CC[C@H](O[C@@H]5OC[C@H](O)[C@H](O)[C@H]5O[C@@H]5O[C@@H](C)[C@H](O)[C@@H](O)[C@H]5O)[C@@](C)(CO)[C@@H]4CC[C@@]3(C)[C@]1(C)CC2`, the HC50 in data set [1] came to 494 µM. For the same compound, the IC50 came out at 43.2 µM in data set [2], 59.6 µM in data set [3], 36 µM in data set [4] and 36.6 µM in data set [5]. Besides, in data set [6], the Ratio turned out to be 20.

Take `C[C@@H]1O[C@@H](O[C@H]2[C@H](O[C@H]3CC[C@@]4(C)[C@@H](CC[C@]5(C)[C@@H]4CC=C4[C@@H]6CC(C)(C)CC[C@]6(C(=O)[O-])CC[C@]45C)[C@]3(C)CO)OC[C@H](O[C@@H]3O[C@H](CO)[C@@H](O)[C@H](O)[C@H]3O)[C@@H]2O)[C@H](O)[C@H](O)[C@H]1O.[Na+]`: the Time in [7] is on record as less than 60 min. The Activity entry in data set [8] and in data set [9] was “Toxic” in each case. Moreover, in [10], the MTD is 10 mg/kg.

Regarding `C[C@@H]1O[C@@H](O[C@H]2[C@H](O[C@H]3CC[C@@]4(C)[C@@H](CC[C@]5(C)[C@@H]4CC=C4[C@@H]6CC(C)(C)CC[C@]6(C(=O)N6CCC[C@@H]6C(=O)O)CC[C@]45C)[C@]3(C)CO)OC[C@H](O)[C@@H]2O)[C@H](O)[C@H](O)[C@H]1O`, in [1], the HC50 came to 22.9 µM. Moreover, the 50% inhibitory concentration (IC50) in data set [2] came to 61.6 µM; in data set [3], 64 µM; in data set [4] it was 41.4 µM; in data set [5], 53.7 µM.

For `C[C@@H]1O[C@@H](O[C@H]2[C@H](O[C@H]3CC[C@@]4(C)[C@@H](CC[C@]5(C)[C@@H]4CC=C4[C@@H]6CC(C)(C)CC[C@]6(C(=O)Nc6ccc(C(=O)O)cc6)CC[C@]45C)[C@]3(C)CO)OC[C@H](O)[C@@H]2O)[C@H](O)[C@H](O)[C@H]1O`, the HC50 in data set [1] stood at 356 µM. Besides, the IC50 in [2] was 1.1 µM; in data set [3], 4.2 µM; in [4], more than 100 µM; in data set [5] it was 0.7 µM. The Ratio in data set [6] is 20.

In the case of `C[C@@H]1O[C@@H](O[C@H]2[C@H](O[C@H]3CC[C@@]4(C)[C@@H](CC[C@]5(C)[C@@H]4CC=C4[C@@H]6CC(C)(C)CC[C@]6(C(=O)Nc6ccccc6O)CC[C@]45C)[C@]3(C)CO)OC[C@H](O)[C@@H]2O)[C@H](O)[C@H](O)[C@H]1O`, the HC50 in [1] is 58.2 µM. Besides, the IC50 is more than 100 µM in [2], more than 100 µM in [3], 1.3 µM in data set [4] and 85.5 µM in data set [5].

For `C[C@@H]1O[C@@H](O[C@H]2[C@H](O[C@H]3CC[C@@]4(C)[C@@H](CC[C@]5(C)[C@@H]4CC=C4[C@@H]6CC(C)(C)CC[C@]6(C(=O)NC6CC6)CC[C@]45C)[C@]3(C)CO)OC[C@H](O)[C@@H]2O)[C@H](O)[C@H](O)[C@H]1O`, in data set [1], the HC50 turned out to be 127 µM. For the same compound, the IC50 in data set [2] amounted to 38.3 µM; in [3] it was 69.2 µM; in [4], 32.6 µM; in [5], 36.2 µM.

As for `C[C@@H]1O[C@@H](O[C@H]2[C@H](O[C@H]3CC[C@@]4(C)[C@@H](CC[C@]5(C)[C@@H]4CC=C4[C@@H]6CC(C)(C)CC[C@]6(C(=O)NCC(=O)[O-])CC[C@]45C)[C@]3(C)CO)OC[C@H](O)[C@@H]2O)[C@H](O)[C@H](O)[C@H]1O.[Na+]`, the Time in data set [7] was more than 20200 min. In addition, the Activity result in data set [8] and in data set [9] was “Non-toxic” each time. Moreover, the MTD in data set [10] was more than 160 mg/kg.

On to `COC(=O)CCN1CCN(C(=O)[C@]23CCC(C)(C)C[C@H]2C2=CC[C@@H]4[C@@]5(C)CC[C@H](O[C@@H]6OC[C@H](O)[C@H](O)[C@H]6O[C@@H]6O[C@@H](C)[C@H](O)[C@@H](O)[C@H]6O)[C@@](C)(CO)[C@@H]5CC[C@@]4(C)[C@]2(C)CC3)CC1`, for which the HC50 in data set [1] is 57.7 µM. For the same compound, the IC50 in [2] was 14 µM; in data set [3], 53.2 µM; in data set [4], 38.3 µM; in data set [5] it was 61.7 µM.

As to `C[C@@H]1O[C@@H](O[C@H]2[C@H](O[C@H]3CC[C@@]4(C)[C@@H](CC[C@]5(C)[C@@H]4CC=C4[C@@H]6CC(C)(C)CC[C@]6(C(=O)NCCN6CCCC6)CC[C@]45C)[C@]3(C)CO)OC[C@H](O)[C@@H]2O)[C@H](O)[C@H](O)[C@H]1O`, the HC50 in data set [1] amounted to 104 µM. Moreover, the IC50 in [2] was more than 100 µM; in [3], more than 100 µM; in data set [4], 46.8 µM; in [5], 44.4 µM.

As to `CCN(CC)CCNC(=O)[C@]12CCC(C)(C)C[C@H]1C1=CC[C@@H]3[C@@]4(C)CC[C@H](O[C@@H]5OC[C@H](O)[C@H](O)[C@H]5O[C@@H]5O[C@@H](C)[C@H](O)[C@@H](O)[C@H]5O)[C@@](C)(CO)[C@@H]4CC[C@@]3(C)[C@]1(C)CC2`, the HC50 in [1] came to 75.3 µM. In addition, the IC50 is 65.3 µM in data set [2], more than 100 µM in data set [3], 48 µM in [4] and 40.6 µM in [5].

Take `C[C@@H]1O[C@@H](O[C@H]2[C@H](O[C@H]3CC[C@@]4(C)[C@@H](CC[C@]5(C)[C@@H]4CC=C4[C@@H]6CC(C)(C)CC[C@]6(C(=O)N6CCOCC6)CC[C@]45C)[C@]3(C)CO)OC[C@H](O)[C@@H]2O)[C@H](O)[C@H](O)[C@H]1O`: the HC50 in data set [1] is 230 µM. Further, the IC50 in [2] was determined as 34.7 µM; in data set [3], 37.9 µM; in data set [4], 17.2 µM; in data set [5] it was 22 µM. Moreover, the Ratio in data set [6] amounted to 20.

On to `C[C@@H]1O[C@@H](O[C@H]2[C@H](O[C@H]3CC[C@@]4(C)[C@@H](CC[C@]5(C)[C@@H]4CC=C4[C@@H]6CC(C)(C)CC[C@]6(C(=O)N6CCN(CCC(=O)O)CC6)CC[C@]45C)[C@]3(C)CO)OC[C@H](O)[C@@H]2O)[C@H](O)[C@H](O)[C@H]1O`, for which the HC50 in [1] is 195 µM. Moreover, the IC50 is 23.4 µM in data set [2], more than 100 µM in [3], more than 100 µM in data set [4] and 46.6 µM in data set [5]. The Ratio in data set [6] is 20.

`C[C@@H]1O[C@@H](O[C@H]2[C@H](O[C@H]3CC[C@@]4(C)[C@@H](CC[C@]5(C)[C@@H]4CC=C4[C@@H]6CC(C)(C)CC[C@]6(C(=O)NCC(=O)O)CC[C@]45C)[C@]3(C)CO)OC[C@H](O)[C@@H]2O)[C@H](O)[C@H](O)[C@H]1O`: the HC50 in data set [1] was more than 500 µM. Further, the IC50 in [2] is 1 µM; in [3], 0.9 µM; in data set [4], 3.2 µM; in [5], more than 100 µM. Besides, in data set [6], the Ratio was found to be 20.

The term IC50 denotes the concentration at which inhibition is half-maximal. The term MTD denotes the highest dose tested that stayed within the study's limit of toxicity.
